Experimental findings from patent EP0901466B1, “BIPHENYLSULFONAMIDE MATRIX METALLOPROTEINASE INHIBITORS” (WARNER-LAMBERT COMPANY, priority 1996, dated 1997) are described below.

SMILES strings stand for the structures.

Chain of stromelysin catalytic domain (P08254 100-272 limits assumed): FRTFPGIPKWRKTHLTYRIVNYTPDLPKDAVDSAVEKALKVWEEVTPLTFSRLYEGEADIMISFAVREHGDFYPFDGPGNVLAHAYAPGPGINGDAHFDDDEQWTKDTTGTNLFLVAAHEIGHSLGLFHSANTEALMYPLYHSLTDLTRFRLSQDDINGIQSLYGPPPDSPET

One test deals with T1, full-length gelatinase B (Homo sapiens, UniProt P14780).
T1 construct: full-length gelatinase B (FLGB) hydrolysis of thiopeptolide
T1 sequence (P14780 94-707, species assumed): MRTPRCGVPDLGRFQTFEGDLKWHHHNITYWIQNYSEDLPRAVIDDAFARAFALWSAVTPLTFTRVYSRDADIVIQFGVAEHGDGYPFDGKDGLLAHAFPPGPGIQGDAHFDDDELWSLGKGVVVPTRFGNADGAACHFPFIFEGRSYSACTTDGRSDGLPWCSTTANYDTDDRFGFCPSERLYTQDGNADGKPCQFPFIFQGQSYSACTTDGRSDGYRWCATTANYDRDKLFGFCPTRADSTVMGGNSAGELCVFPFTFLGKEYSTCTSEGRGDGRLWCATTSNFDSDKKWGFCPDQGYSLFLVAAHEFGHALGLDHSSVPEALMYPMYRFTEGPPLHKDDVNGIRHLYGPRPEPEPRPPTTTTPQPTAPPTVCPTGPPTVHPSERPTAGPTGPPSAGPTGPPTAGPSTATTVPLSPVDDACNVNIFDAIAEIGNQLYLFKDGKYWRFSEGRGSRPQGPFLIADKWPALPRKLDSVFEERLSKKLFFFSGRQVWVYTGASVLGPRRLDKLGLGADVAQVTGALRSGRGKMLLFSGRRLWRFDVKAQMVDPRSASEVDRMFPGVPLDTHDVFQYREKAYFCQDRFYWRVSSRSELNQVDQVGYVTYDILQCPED
Description: full-length gelatinase B hydrolysis of thiopeptolide (FLGB). The class given is biochemical. Particulars: thiopeptolide substrate. An excerpt: (§1) The compounds were additionally evaluated for their ability to inhibit full-length collagenase hydrolysis of thiopeptolide substrate (FLC) and full-length gelatinase B (FLGB) hydrolysis of thiopeptolide.
Broadly, the IC50 is the midpoint of a concentration-inhibition curve. Turning to `CC(C)[C@H](NS(=O)(=O)c1ccc(-c2ccc(Br)cc2)cc1)C(=O)O` [Example 1, (S)-2-(4'-Bromo-biphenyl-4-sulfonylamino)-3-methyl-butyric acid], the IC50 was 8340 nM.
Molecule `CC(C)[C@H](NS(=O)(=O)c1ccc(-c2ccc(Cl)cc2)cc1)C(=O)O` [Example 2, (S)-2-(4'-Chloro-biphenyl-4-sulfonylamino)-3-methyl-butyric acid] gave an IC50 of 23000 nM.

The target of the next test is T2, full-length collagenase (Homo sapiens, UniProt P03956).
T2 sequence (P03956 100-469): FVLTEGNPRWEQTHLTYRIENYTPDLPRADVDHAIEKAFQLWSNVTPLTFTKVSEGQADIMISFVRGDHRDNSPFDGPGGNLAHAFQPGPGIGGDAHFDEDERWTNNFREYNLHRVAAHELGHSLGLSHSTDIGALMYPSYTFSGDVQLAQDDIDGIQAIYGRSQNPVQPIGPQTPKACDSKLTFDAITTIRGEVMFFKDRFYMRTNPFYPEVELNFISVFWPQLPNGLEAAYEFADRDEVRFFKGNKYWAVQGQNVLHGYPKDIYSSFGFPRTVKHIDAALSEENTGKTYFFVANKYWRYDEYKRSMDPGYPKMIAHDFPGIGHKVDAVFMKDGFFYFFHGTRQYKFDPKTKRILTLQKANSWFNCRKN
Description: full-length collagenase hydrolysis of thiopeptolide substrate (FLC). The format is biochemical.
Conditions: not given
Excerpt: as §1
`CC(C)[C@H](NS(=O)(=O)c1ccc(-c2ccc(Cl)cc2)cc1)C(=O)O` [Example 2, (S)-2-(4'-Chloro-biphenyl-4-sulfonylamino)-3-methyl-butyric acid] registered an IC50 of 7500 nM.

The next test concerns the target stromelysin catalytic domain (Homo sapiens, UniProt P08254). The test is described as follows: stromelysin catalytic domain hydrolysis of thiopeptolide (SCD (T)). The class given is biochemical.
Conditions: not given
Molecule `COc1ccc(-c2ccc(S(=O)(=O)N[C@H](C(=O)O)C(C)C)cc2)cc1` [Example 15, (S)-2-(4'-Methoxy-biphenyl-4-sulfonylamino)-3-methyl-butyric acid] gave an IC50 of 8 nM.
`CC(C)[C@H](NS(=O)(=O)c1ccc(-c2ccc(C#N)cc2)cc1)C(=O)O` [Example 5, (S)-2-(4'-Cyano-biphenyl-4-sulfonylamino)-3-methyl-butyric acid]: the midpoint of inhibition, the IC50, lay at 9 nM.
For `CC(C)[C@H](NS(=O)(=O)c1ccc(-c2ccc(Cl)cc2)cc1)C(=O)O` [Example 2, (S)-2-(4'-Chloro-biphenyl-4-sulfonylamino)-3-methyl-butyric acid], half-maximal inhibition (IC50) was put at 100 nM.

The test is the same for the next values; noted with them: thiopeptolide substrate; read-out: SCD (T) (IC50).
Consider `CC(C)C[C@H](NS(=O)(=O)c1ccc(-c2ccc(Br)cc2)cc1)C(=O)O` [Example 14, (S)-2-(4'-Bromo-biphenyl-4-sulfonylamino)-4-methyl-pentanoic acid], for which the IC50 was 13 nM.
With `O=C(O)[C@H](Cc1ccccc1)NS(=O)(=O)c1ccc(-c2ccc(Br)cc2)cc1` [Example 10, (S)-2-(4'-Bromo-biphenyl-4-sulfonylamino)-3-phenyl-propionic acid], the IC50 came to 26 nM.
For `O=C(O)CNS(=O)(=O)c1ccc(-c2ccc(Br)cc2)cc1` [Example 12, (4'-Bromo-biphenyl-4-sulfonylamino)-acetic acid], the 50% inhibitory concentration (IC50) was 60 nM.
On the same count and under the same terms, in the case of `CC(C)[C@H](NS(=O)(=O)c1ccc(-c2cccc(Br)c2)cc1)C(=O)O` [Example 7, (S)-2-(3'-Bromo-biphenyl-4-sulfonylamino)-3-methyl-butyric acid] it was 347 nM; in that of `CC(C)[C@H](NS(=O)(=O)c1ccc(-c2cccc(F)c2)cc1)C(=O)O` [Example 17, (S)-2-(3'-Fluoro-biphenyl-4-sulfonylamino)-3-methyl-butyric acid], 27 nM.
In the case of `CC(C)[C@H](NS(=O)(=O)c1ccc(-c2ccc([N+](=O)[O-])cc2)cc1)C(=O)O` [Example 3, (S)-3-Methyl-2-(4'-nitro-biphenyl-4-sulfonylamino)-butyric acid], the half-maximal inhibitory concentration (IC50) is 31 nM.
Same read-out and setting: in the case of `CC(C)[C@H](NS(=O)(=O)c1ccc(-c2ccc(Br)cc2F)cc1)C(=O)O` [Example 8, (S)-2-(4'-Bromo-2'-fluoro-biphenyl-4-sulfonylamino)-3-methyl-butyric acid] it was 30 nM; in that of `Cc1ccc(-c2ccc(S(=O)(=O)N[C@H](C(=O)O)C(C)C)cc2)cc1` [Example 18, (S)-3-Methyl-2-(4'-methyl-biphenyl-4-sulfonylamino)-butyric acid], 12 nM.
Take `CC(C)[C@H](NS(=O)(=O)c1ccc(-c2ccc(N)cc2)cc1)C(=O)O` [Example 4, (S)-2-(4'-Amino-biphenyl-4-sulfonylamino)-3-methyl-butyric acid]: the IC50 stood at 67 nM.
Same read-out and setting: to `CC(C)[C@H](NS(=O)(=O)c1ccc(-c2ccc(F)cc2)cc1)C(=O)O` [Example 16, (S)-2-(4'-Fluoro-biphenyl-4-sulfonylamino)-3-methyl-butyric acid] belongs 14 nM.
`C[C@H](NS(=O)(=O)c1ccc(-c2ccc(Br)cc2)cc1)C(=O)O` [Example 13, (S)-2-(4'-Bromo-biphenyl-4-sulfonylamino)-propionic acid]: the IC50 was 28 nM.
